Converted amounts (≈) assume the structure as drawn. A value given as a limit tells only on which side of the number the result lay.

Type in all cases: functional
The subject of test [1] is Staphylococcus aureus. In words: Antimicrobial activity against Staphylococcus aureus ATCC 29213 assessed as inhibition of microbial growth incubated for 24 hrs by broth-microdilution assay. As to conditions: for MIC: Staphylococcus aureus, ATCC 29213, read-out: MIC100. (In general: Dilution methods test growth across graded concentrations, often in twofold steps.)
The test system of test [2] is Staphylococcus aureus. In words: Antimicrobial activity against methicillin resistant Staphylococcus aureus 43300 assessed as inhibition of microbial growth incubated for 24 hrs by broth-microdilution assay.
Test [3] concerns Staphylococcus epidermidis. In words: Antimicrobial activity against Staphylococcus epidermidis ATCC 35984 assessed as inhibition of microbial growth incubated for 24 hrs by broth-microdilution assay. As to conditions: for MIC: Staphylococcus epidermidis.
In test [4] the test system is Staphylococcus epidermidis. In words: Antimicrobial activity against Staphylococcus epidermidis ATCC 12228 assessed as inhibition of microbial growth incubated for 24 hrs by broth-microdilution assay. Conditions: for MIC: Staphylococcus epidermidis.
Test [5] concerns Staphylococcus aureus. In words: Antimicrobial activity against Staphylococcus aureus ATCC 43300 assessed as inhibition of microbial growth incubated for 24 hrs by broth-microdilution assay. Conditions: for MIC: Staphylococcus aureus, ATCC 43300, read-out: MIC100.
The subject of test [6] is Staphylococcus aureus. Description: Antimicrobial activity against Staphylococcus aureus 29213 assessed as inhibition of microbial growth incubated for 24 hrs by broth-microdilution assay.
In test [7] the test system is Candida albicans. Description: Antifungal activity against Candida albicans ATCC 90028 assessed as reduction in fungal growth incubated for 48 hrs by CLSI based analysis.
Test [8] has as its system Klebsiella pneumoniae. In words: Antimicrobial activity against Klebsiella pneumoniae ATCC BAA1705 assessed as inhibition of microbial growth incubated for 24 hrs by broth-microdilution assay. Conditions: for MIC: read-out: MIC100.
Test [9] relates to Pseudomonas aeruginosa. In words: Antimicrobial activity against Pseudomonas aeruginosa PAO1 assessed as inhibition of microbial growth incubated for 24 hrs by broth-microdilution assay. Conditions: Pseudomonas aeruginosa, PAO1, read-out: MIC100.
The subject of test [10] is Pseudomonas aeruginosa. In words: Antimicrobial activity against Pseudomonas aeruginosa ATCC 27853 assessed as inhibition of microbial growth incubated for 24 hrs by broth-microdilution assay. Conditions: Pseudomonas aeruginosa, ATCC 27853, read-out: MIC100.
Test [11] deals with Klebsiella pneumoniae. In words: Antimicrobial activity against Klebsiella pneumoniae ATCC 13883 assessed as inhibition of microbial growth incubated for 24 hrs by broth-microdilution assay. Conditions: read-out: MIC100.
Test [12] relates to Candida albicans. Description: Antifungal activity against Candida albicans ATCC 10231 assessed as reduction in fungal growth incubated for 48 hrs by CLSI based analysis. As to conditions: read-out: MIC100.

As to `Cc1onc(-c2ccccc2)c1C(=O)N[C@@H]1C(=O)N2[C@@H]1SC(C)(C)[C@@H]2C(=O)O` [OXACILLIN], the MIC is 2 µg/mL in the test on Staphylococcus aureus [1]; 10 µg/mL with Staphylococcus aureus [2] (read-out: MIC100); 2 µg/mL in test [3] (ATCC 35984, read-out: MIC100); 2 µg/mL in [4] (ATCC 12228, read-out: MIC100); 2 µg/mL in the test on Staphylococcus aureus [5].

For the compound `CC1=C(CC/C=C(\C)C(=O)N=C(N)N)[C@@]2(C)CCCC(C)(C)[C@@H]2CC1`, the MIC with Staphylococcus aureus [2] (read-out: MIC) turned out to be 4 µg/mL; in test [3] (ATCC 35984, read-out: MIC), 4 µg/mL; in the test with Staphylococcus aureus [6], 4 µg/mL; in the test on Candida albicans [7] (read-out: MIC), 8 µg/mL (≈ 23.2 µM); in [4] (ATCC 12228, read-out: MIC), 4 µg/mL.

Turning to `C[C@@H](O)[C@H]1C(=O)N2C(C(=O)O)=C(SCCNC=N)C[C@H]12` [IMIPENEM ANHYDROUS], the MIC in the test with Klebsiella pneumoniae [8] is not below 4 µg/mL.

Turning to `NC[C@H]1O[C@H](O[C@H]2[C@H](O)[C@@H](O[C@H]3O[C@H](CO)[C@@H](O)[C@H](N)[C@H]3O)[C@H](N)C[C@@H]2N)[C@H](N)C[C@@H]1O` [TOBRAMYCIN], the MIC in the test on Pseudomonas aeruginosa [9], with Pseudomonas aeruginosa [10] and in the test with Klebsiella pneumoniae [11] was 2 µg/mL each time.

In the case of `C[C@@H](c1ncncc1F)[C@](O)(Cn1cncn1)c1ccc(F)cc1F` [VORICONAZOLE], the MIC was not below 1 µg/mL in the test on Candida albicans [12] and not above 0.12 µg/mL in the test on Candida albicans [7] (read-out: MIC100).

With `CC(=O)O[C@](C)(CCC1[C@](C)(OC(C)=O)CC[C@H]2C(C)(C)CCC[C@]12C)C(=O)N=C(N)N` (some centres undefined), the MIC was 4 µg/mL in the test on Staphylococcus aureus [2] (read-out: MIC); 4 µg/mL in [3] (ATCC 35984, read-out: MIC); 4 µg/mL in the test with Staphylococcus aureus [6]; 16 µg/mL (≈ 35.4 µM) with Candida albicans [7] (read-out: MIC); 4 µg/mL in test [4] (ATCC 12228, read-out: MIC).

With `CC1=C(CC/C=C(/C)C(=O)NC(=N)N)[C@@]2(C)CCCC(C)(C)[C@@H]2CC1`, the MIC in the test on Staphylococcus aureus [2] (read-out: MIC) worked out at 4 µg/mL; in [3] (ATCC 35984, read-out: MIC), 4 µg/mL; in the test on Staphylococcus aureus [6] it was 4 µg/mL; with Candida albicans [7] (read-out: MIC) it was 8 µg/mL (≈ 23.2 µM); in test [4] (ATCC 12228, read-out: MIC), 4 µg/mL.

Take `C[C@@H]1[C@H](O)[C@@H](C)/C=C/C=C/C=C/C=C/C=C/C=C/C=C/[C@H](O[C@@H]2O[C@H](C)[C@@H](O)[C@H](N)[C@@H]2O)C[C@@H]2O[C@](O)(C[C@@H](O)C[C@@H](O)[C@H](O)CC[C@@H](O)C[C@@H](O)CC(=O)O[C@H]1C)C[C@H](O)[C@H]2C(=O)O` [AMPHOTERICIN B]: the MIC with Candida albicans [12] and in the test with Candida albicans [7] (read-out: MIC100) was 4 µg/mL (≈ 4.33 µM) throughout.

Regarding `CC1(C)CCC[C@]2(C)[C@H]3CC[C@@](C)(CC(=O)O)O[C@]3(C)CC[C@@H]12`, the MIC in the test with Staphylococcus aureus [1] was more than 128 µg/mL; in the test with Pseudomonas aeruginosa [9], more than 128 µg/mL; in the test with Pseudomonas aeruginosa [10], more than 128 µg/mL; in test [3] (ATCC 35984, read-out: MIC100) it was 128 µg/mL; with Klebsiella pneumoniae [11] it was more than 128 µg/mL; in the test with Candida albicans [12], more than 128 µg/mL. Besides, the MIC is more than 128 µg/mL with Candida albicans [7] (read-out: MIC100); 128 µg/mL in test [4] (ATCC 12228, read-out: MIC100); more than 128 µg/mL in the test on Staphylococcus aureus [5]; more than 128 µg/mL in the test with Klebsiella pneumoniae [8].

For the compound `CC1(C)CCC[C@]2(C)[C@H]3CC[C@](C)(CC(=O)O)O[C@]3(C)CC[C@@H]12`, the MIC70 (with Staphylococcus aureus [1]; in [3]; in [4]; with Staphylococcus aureus [5]) was 64 µg/mL in each case. Besides, the MIC in the test on Pseudomonas aeruginosa [9], in the test on Pseudomonas aeruginosa [10], in the test on Klebsiella pneumoniae [11], in the test on Candida albicans [12], in the test on Candida albicans [7] (read-out: MIC100) and in the test with Klebsiella pneumoniae [8] was more than 128 µg/mL throughout.

Take GENTAMICIN: the MIC100 with Klebsiella pneumoniae [8] is 4 µg/mL.
